From paper PMC10905675, “INX-315, a Selective CDK2 Inhibitor, Induces Cell Cycle Arrest and Senescence in Solid Tumors” (Cancer Discovery, 2023)

Key:
Experiment in all cases: SelectScreen ZLYTE
Type in all cases: biochemical
Conditions in all cases: INX-0315 at 100nM
PRKG2 (PKG2) = target: T1, PRKG2 (PKG2) (Homo sapiens, UniProt Q13237)
T1 construct: purchased Thermo Fisher Scientific SelectScreen (plus Nanosyn / Reaction Biology for CDK/cyclin lines)
Excerpt: (§1) INX-315 was first evaluated in the SelectScreen Biochemical Kinase Profiling at Thermo Fisher Scientific (Madison, WI). The primary screen consisted of INX-315 dosed at a single concentration of 100 nmol/L in 1% DMSO across each platform within the SelectScreen array of assays, LanthaScreen Eu Kinase Binding Assay; AdaptaScreen; and Z'LyteScreen using preestablished conditions at Thermo Fisher Scientific as shown in Supplementary Table S2. […] The follow-up screen consisted of 10-point dose–response curves for INX-315 from 1 µmol/L to 0.0495 nmol/L.

LYN A = target: T2, LYN A (Homo sapiens, UniProt P07948)
T2 construct: purchased Thermo Fisher Scientific SelectScreen (plus Nanosyn / Reaction Biology for CDK/cyclin lines)
Excerpt: as §1

EEF2K = target: T3, EEF2K (Homo sapiens, UniProt O00418)
T3 construct: purchased Thermo Fisher Scientific SelectScreen (plus Nanosyn / Reaction Biology for CDK/cyclin lines)
Excerpt: as §1

MAPK3 (ERK1) = target: T4, MAPK3 (ERK1) (Homo sapiens, UniProt P27361)
T4 construct: purchased Thermo Fisher Scientific SelectScreen (plus Nanosyn / Reaction Biology for CDK/cyclin lines)
Excerpt: as §1

EPHB4 = target: T5, EPHB4 (Homo sapiens, UniProt P54760)
T5 construct: purchased Thermo Fisher Scientific SelectScreen (plus Nanosyn / Reaction Biology for CDK/cyclin lines)
Excerpt: as §1

DCAMKL2 (DCK2) = target: T6, DCAMKL2 (DCK2) (Homo sapiens, UniProt Q8N568)
T6 construct: purchased Thermo Fisher Scientific SelectScreen (plus Nanosyn / Reaction Biology for CDK/cyclin lines)
Excerpt: as §1

NEK6 = target: T7, NEK6 (Homo sapiens, UniProt Q9HC98)
T7 construct: purchased Thermo Fisher Scientific SelectScreen (plus Nanosyn / Reaction Biology for CDK/cyclin lines)
Excerpt: as §1

PEAK1 = target: T8, PEAK1 (Homo sapiens, UniProt Q9H792)
T8 construct: purchased Thermo Fisher Scientific SelectScreen (plus Nanosyn / Reaction Biology for CDK/cyclin lines)
Excerpt: as §1

RET A883F = target: T9, RET A883F (Homo sapiens, UniProt P07949, A883F)
T9 construct: purchased Thermo Fisher Scientific SelectScreen (plus Nanosyn / Reaction Biology for CDK/cyclin lines)
Excerpt: as §1

PRKCI (PKC iota) = target: T10, PRKCI (PKC iota) (Homo sapiens, UniProt P41743)
T10 construct: purchased Thermo Fisher Scientific SelectScreen (plus Nanosyn / Reaction Biology for CDK/cyclin lines)
Excerpt: as §1

JAK2 JH1 JH2 V617F = target: T11, JAK2 JH1 JH2 V617F (Homo sapiens, UniProt O60674, V617F)
T11 construct: JAK2 JH1 JH2 V617F; purchased Thermo Fisher Scientific SelectScreen (plus Nanosyn / Reaction Biology for CDK/cyclin lines)
Excerpt: as §1

RET V804E = target: T12, RET V804E (Homo sapiens, UniProt P07949, V804E)
T12 construct: purchased Thermo Fisher Scientific SelectScreen (plus Nanosyn / Reaction Biology for CDK/cyclin lines)
Excerpt: as §1

STK24 (MST3) = target: T13, STK24 (MST3) (Homo sapiens, UniProt Q9Y6E0)
T13 construct: purchased Thermo Fisher Scientific SelectScreen (plus Nanosyn / Reaction Biology for CDK/cyclin lines)
Excerpt: as §1

MARK3 = target: T14, MARK3 (Homo sapiens, UniProt P27448)
T14 construct: purchased Thermo Fisher Scientific SelectScreen (plus Nanosyn / Reaction Biology for CDK/cyclin lines)
Excerpt: as §1

ITK = target: T15, ITK (Homo sapiens, UniProt Q08881)
T15 construct: purchased Thermo Fisher Scientific SelectScreen (plus Nanosyn / Reaction Biology for CDK/cyclin lines)
Excerpt: as §1

IGF1R = target: T16, IGF1R (Homo sapiens, UniProt P08069)
T16 construct: purchased Thermo Fisher Scientific SelectScreen (plus Nanosyn / Reaction Biology for CDK/cyclin lines)
Excerpt: as §1

JAK3 = target: T17, JAK3 (Homo sapiens, UniProt P52333)
T17 construct: purchased Thermo Fisher Scientific SelectScreen (plus Nanosyn / Reaction Biology for CDK/cyclin lines)
Excerpt: as §1

GRK7 = target: T18, GRK7 (Homo sapiens, UniProt Q8WTQ7)
T18 construct: purchased Thermo Fisher Scientific SelectScreen (plus Nanosyn / Reaction Biology for CDK/cyclin lines)
Excerpt: as §1

CAMK2A (CaMKII alpha) = target: T19, CAMK2A (CaMKII alpha) (Homo sapiens, UniProt Q9UQM7)
T19 construct: purchased Thermo Fisher Scientific SelectScreen (plus Nanosyn / Reaction Biology for CDK/cyclin lines)
Excerpt: as §1

PRKCN (PKD3) = target: T20, PRKCN (PKD3) (Homo sapiens, UniProt O94806)
T20 construct: purchased Thermo Fisher Scientific SelectScreen (plus Nanosyn / Reaction Biology for CDK/cyclin lines)
Excerpt: as §1

RET = target: T21, RET (Homo sapiens, UniProt P07949)
T21 construct: purchased Thermo Fisher Scientific SelectScreen (plus Nanosyn / Reaction Biology for CDK/cyclin lines)
Excerpt: as §1

EPHA5 = target: T22, EPHA5 (Homo sapiens, UniProt P54756)
T22 construct: purchased Thermo Fisher Scientific SelectScreen (plus Nanosyn / Reaction Biology for CDK/cyclin lines)
Excerpt: as §1

CSNK1G2 (CK1 gamma 2) = target: T23, CSNK1G2 (CK1 gamma 2) (Homo sapiens, UniProt P78368)
T23 construct: purchased Thermo Fisher Scientific SelectScreen (plus Nanosyn / Reaction Biology for CDK/cyclin lines)
Excerpt: as §1

ABL1 = target: T24, ABL1 (Homo sapiens, UniProt P00519)
T24 construct: purchased Thermo Fisher Scientific SelectScreen (plus Nanosyn / Reaction Biology for CDK/cyclin lines)
Excerpt: as §1

GRK6 = target: T25, GRK6 (Homo sapiens, UniProt P43250)
T25 construct: purchased Thermo Fisher Scientific SelectScreen (plus Nanosyn / Reaction Biology for CDK/cyclin lines)
Excerpt: as §1

KSR2 = target: T26, KSR2 (Homo sapiens, UniProt Q6VAB6)
T26 construct: purchased Thermo Fisher Scientific SelectScreen (plus Nanosyn / Reaction Biology for CDK/cyclin lines)
Excerpt: as §1

PLK1 = target: T27, PLK1 (Homo sapiens, UniProt P53350)
T27 construct: purchased Thermo Fisher Scientific SelectScreen (plus Nanosyn / Reaction Biology for CDK/cyclin lines)
Excerpt: as §1

ABL1 T315I = target: T28, ABL1 T315I (Homo sapiens, UniProt P00519, T315I)
T28 construct: purchased Thermo Fisher Scientific SelectScreen (plus Nanosyn / Reaction Biology for CDK/cyclin lines)
Excerpt: as §1

STK22B (TSSK2) = target: T29, STK22B (TSSK2) (Homo sapiens, UniProt Q96PF2)
T29 construct: purchased Thermo Fisher Scientific SelectScreen (plus Nanosyn / Reaction Biology for CDK/cyclin lines)
Excerpt: as §1

EGFR (ErbB1) G719C = target: T30, EGFR (ErbB1) G719C (Homo sapiens, UniProt P00533, G719C)
T30 construct: purchased Thermo Fisher Scientific SelectScreen (plus Nanosyn / Reaction Biology for CDK/cyclin lines)
Excerpt: as §1

KIT = target: T31, KIT (Homo sapiens, UniProt P10721)
T31 construct: purchased Thermo Fisher Scientific SelectScreen (plus Nanosyn / Reaction Biology for CDK/cyclin lines)
Excerpt: as §1

RPS6KA2 (RSK3) = target: T32, RPS6KA2 (RSK3) (Homo sapiens, UniProt Q15349)
T32 construct: purchased Thermo Fisher Scientific SelectScreen (plus Nanosyn / Reaction Biology for CDK/cyclin lines)
Excerpt: as §1

AMPK A1/B1/G1 = target: T33, AMPK A1/B1/G1 (Homo sapiens, UniProt Q13131)
T33 construct: purchased Thermo Fisher Scientific SelectScreen (plus Nanosyn / Reaction Biology for CDK/cyclin lines)
Excerpt: as §1

YES1 = target: T34, YES1 (Homo sapiens, UniProt P07947)
T34 construct: purchased Thermo Fisher Scientific SelectScreen (plus Nanosyn / Reaction Biology for CDK/cyclin lines)
Excerpt: as §1

STK22D (TSSK1) = target: T35, STK22D (TSSK1) (Homo sapiens, UniProt Q9BXA7)
T35 construct: purchased Thermo Fisher Scientific SelectScreen (plus Nanosyn / Reaction Biology for CDK/cyclin lines)
Excerpt: as §1

CLK2 = target: T36, CLK2 (Homo sapiens, UniProt P49760)
T36 construct: purchased Thermo Fisher Scientific SelectScreen (plus Nanosyn / Reaction Biology for CDK/cyclin lines)
Excerpt: as §1

EGFR (ErbB1) T790M = target: T37, EGFR (ErbB1) T790M (Homo sapiens, UniProt P00533, T790M)
T37 construct: purchased Thermo Fisher Scientific SelectScreen (plus Nanosyn / Reaction Biology for CDK/cyclin lines)
Excerpt: as §1

T13 sequence (Q9Y6E0 whole entry): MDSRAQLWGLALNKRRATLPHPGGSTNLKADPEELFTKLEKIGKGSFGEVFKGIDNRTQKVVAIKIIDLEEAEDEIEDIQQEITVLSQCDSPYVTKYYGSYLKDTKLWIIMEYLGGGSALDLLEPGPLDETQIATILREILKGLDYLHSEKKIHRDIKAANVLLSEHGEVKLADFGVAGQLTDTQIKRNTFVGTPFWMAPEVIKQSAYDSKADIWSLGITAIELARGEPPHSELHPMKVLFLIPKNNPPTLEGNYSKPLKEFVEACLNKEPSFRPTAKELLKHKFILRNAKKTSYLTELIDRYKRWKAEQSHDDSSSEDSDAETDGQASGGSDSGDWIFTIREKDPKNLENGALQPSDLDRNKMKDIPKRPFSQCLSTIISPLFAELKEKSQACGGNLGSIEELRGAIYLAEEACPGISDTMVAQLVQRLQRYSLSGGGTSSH
T11 sequence (O60674 532-1132 V617F limits assumed): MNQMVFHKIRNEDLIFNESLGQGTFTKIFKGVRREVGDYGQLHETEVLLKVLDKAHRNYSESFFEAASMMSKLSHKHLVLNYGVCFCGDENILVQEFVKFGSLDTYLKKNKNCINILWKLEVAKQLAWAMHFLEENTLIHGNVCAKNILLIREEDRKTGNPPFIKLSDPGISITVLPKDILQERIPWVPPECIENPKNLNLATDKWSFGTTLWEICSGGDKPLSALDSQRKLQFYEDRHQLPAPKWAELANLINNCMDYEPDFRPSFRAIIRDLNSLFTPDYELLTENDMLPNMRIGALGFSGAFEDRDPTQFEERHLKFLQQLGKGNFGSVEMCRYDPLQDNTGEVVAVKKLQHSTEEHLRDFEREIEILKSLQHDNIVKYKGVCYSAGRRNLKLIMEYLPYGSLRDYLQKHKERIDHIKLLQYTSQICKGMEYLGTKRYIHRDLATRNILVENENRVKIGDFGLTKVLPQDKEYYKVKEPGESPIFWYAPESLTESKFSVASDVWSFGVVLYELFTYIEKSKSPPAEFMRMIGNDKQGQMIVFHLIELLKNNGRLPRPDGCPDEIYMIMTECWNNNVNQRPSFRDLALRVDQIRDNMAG
T33 sequence (Q13131 whole entry): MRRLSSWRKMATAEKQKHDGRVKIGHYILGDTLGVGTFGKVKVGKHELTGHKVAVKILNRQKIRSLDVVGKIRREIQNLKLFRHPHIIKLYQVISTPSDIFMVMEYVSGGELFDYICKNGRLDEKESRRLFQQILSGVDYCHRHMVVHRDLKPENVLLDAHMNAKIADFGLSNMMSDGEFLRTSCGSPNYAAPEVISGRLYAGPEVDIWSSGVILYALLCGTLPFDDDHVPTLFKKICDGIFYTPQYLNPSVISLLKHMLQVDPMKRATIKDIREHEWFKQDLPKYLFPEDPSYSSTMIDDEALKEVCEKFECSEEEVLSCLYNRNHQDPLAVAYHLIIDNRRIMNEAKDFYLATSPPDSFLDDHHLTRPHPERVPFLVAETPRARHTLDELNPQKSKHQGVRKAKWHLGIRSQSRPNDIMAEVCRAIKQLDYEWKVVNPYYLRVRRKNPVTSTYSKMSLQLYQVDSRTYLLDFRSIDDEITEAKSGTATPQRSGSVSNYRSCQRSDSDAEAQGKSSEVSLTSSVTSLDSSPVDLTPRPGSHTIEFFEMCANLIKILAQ
T33 sequence (Q9Y478 whole entry partner): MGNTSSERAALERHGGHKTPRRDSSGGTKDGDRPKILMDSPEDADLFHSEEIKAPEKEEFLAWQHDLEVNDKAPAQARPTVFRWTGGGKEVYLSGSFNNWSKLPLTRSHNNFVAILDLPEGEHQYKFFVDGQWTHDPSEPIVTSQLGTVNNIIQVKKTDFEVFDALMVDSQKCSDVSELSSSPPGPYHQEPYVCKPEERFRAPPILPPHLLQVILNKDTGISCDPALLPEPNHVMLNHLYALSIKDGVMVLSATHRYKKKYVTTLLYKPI
T33 sequence (P54619 whole entry partner): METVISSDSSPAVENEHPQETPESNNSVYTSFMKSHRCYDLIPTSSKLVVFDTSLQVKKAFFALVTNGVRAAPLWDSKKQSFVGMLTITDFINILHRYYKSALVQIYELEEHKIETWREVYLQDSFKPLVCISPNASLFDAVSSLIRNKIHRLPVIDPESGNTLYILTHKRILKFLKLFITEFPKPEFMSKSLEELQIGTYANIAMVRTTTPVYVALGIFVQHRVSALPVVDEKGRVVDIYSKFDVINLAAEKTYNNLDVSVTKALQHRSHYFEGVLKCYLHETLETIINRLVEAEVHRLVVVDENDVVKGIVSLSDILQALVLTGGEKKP
T16 sequence (P08069 31-1367): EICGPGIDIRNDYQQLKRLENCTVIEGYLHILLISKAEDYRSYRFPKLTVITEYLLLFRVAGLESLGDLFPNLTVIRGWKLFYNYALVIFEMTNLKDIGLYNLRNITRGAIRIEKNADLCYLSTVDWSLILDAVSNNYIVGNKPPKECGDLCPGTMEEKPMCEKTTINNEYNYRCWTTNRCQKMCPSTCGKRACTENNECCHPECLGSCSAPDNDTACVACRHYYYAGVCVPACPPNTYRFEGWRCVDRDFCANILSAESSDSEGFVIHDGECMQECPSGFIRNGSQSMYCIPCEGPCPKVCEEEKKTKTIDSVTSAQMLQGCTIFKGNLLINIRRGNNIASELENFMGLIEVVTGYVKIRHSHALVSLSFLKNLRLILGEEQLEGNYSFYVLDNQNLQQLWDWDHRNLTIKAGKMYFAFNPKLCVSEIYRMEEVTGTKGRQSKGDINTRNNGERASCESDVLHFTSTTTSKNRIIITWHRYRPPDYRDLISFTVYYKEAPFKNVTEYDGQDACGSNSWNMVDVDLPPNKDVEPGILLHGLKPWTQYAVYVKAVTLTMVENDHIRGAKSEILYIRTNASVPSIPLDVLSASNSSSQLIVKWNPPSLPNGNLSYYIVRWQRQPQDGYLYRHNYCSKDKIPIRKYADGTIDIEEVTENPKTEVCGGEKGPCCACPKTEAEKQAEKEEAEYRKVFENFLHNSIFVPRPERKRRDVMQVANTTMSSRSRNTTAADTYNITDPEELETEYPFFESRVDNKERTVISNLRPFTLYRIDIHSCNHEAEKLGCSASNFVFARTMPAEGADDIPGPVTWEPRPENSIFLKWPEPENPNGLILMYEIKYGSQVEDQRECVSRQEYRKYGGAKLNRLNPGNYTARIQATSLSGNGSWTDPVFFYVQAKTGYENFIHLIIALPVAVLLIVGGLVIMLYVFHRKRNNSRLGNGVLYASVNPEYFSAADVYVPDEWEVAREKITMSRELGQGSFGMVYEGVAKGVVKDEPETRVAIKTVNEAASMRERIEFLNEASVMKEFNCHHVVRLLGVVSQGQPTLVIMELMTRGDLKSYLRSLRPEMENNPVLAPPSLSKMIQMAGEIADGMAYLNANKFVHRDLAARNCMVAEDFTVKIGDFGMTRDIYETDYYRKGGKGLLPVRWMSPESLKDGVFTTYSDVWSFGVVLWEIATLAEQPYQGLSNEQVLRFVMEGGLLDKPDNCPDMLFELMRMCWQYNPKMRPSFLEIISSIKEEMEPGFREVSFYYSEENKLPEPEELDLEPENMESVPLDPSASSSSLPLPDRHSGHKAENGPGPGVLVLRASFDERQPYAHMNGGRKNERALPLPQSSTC
T19 sequence (Q9UQM7 whole entry): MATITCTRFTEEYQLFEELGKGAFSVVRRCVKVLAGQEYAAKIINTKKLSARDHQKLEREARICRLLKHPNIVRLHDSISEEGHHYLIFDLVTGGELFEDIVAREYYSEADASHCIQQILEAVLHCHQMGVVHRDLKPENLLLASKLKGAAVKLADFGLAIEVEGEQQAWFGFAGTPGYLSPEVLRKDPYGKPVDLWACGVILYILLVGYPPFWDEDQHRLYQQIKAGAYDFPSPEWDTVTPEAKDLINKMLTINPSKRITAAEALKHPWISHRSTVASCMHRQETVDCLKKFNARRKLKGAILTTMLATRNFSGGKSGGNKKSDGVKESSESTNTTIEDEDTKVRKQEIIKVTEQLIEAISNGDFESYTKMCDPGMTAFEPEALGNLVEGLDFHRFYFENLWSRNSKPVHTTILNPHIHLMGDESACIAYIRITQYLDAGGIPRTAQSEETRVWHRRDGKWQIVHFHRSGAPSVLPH
T34 sequence (P07947 whole entry): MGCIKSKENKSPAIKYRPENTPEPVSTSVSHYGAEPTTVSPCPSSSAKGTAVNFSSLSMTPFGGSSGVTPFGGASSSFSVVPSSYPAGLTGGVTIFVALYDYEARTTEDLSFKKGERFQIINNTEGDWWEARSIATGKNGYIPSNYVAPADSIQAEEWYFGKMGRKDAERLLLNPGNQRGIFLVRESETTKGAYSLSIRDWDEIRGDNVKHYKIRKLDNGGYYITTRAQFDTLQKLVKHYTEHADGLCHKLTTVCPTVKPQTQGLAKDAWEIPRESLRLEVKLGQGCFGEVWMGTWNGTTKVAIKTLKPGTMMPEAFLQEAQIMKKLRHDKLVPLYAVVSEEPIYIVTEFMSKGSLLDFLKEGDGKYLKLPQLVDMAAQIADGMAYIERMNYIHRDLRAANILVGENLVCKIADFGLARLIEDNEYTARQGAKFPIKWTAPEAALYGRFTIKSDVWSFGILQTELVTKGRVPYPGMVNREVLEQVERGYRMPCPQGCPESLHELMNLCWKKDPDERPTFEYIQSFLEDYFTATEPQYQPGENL
T29 sequence (Q96PF2 whole entry): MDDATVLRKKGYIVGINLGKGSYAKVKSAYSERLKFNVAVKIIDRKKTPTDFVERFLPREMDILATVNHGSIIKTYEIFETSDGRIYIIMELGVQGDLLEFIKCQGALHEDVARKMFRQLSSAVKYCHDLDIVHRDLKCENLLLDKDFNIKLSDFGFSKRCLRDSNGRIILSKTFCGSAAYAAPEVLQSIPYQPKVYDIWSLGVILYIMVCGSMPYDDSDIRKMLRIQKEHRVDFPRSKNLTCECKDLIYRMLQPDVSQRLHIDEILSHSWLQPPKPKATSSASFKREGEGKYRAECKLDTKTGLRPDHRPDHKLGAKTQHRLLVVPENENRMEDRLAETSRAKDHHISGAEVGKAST

Compound: NS(=O)(=O)c1ccc(Nc2ncc3cc4n(c3n2)C2(CCCCC2)C(=O)NN4)cc1 [INX-315]
- inhibition at 0.1 µM (PRKG2 (PKG2)): -1%
- inhibition at 0.1 µM (LYN A): 6%
- inhibition at 0.1 µM (EEF2K): 4%
- inhibition at 0.1 µM (MAPK3 (ERK1)): 2%
- inhibition at 0.1 µM (EPHB4): 6%
- inhibition at 0.1 µM (DCAMKL2 (DCK2)): -1%
- inhibition at 0.1 µM (NEK6): 1%
- inhibition at 0.1 µM (PEAK1): 10%
- inhibition at 0.1 µM (RET A883F): 22%
- inhibition at 0.1 µM (PRKCI (PKC iota)): -5%
- inhibition at 0.1 µM (JAK2 JH1 JH2 V617F): 39%
- inhibition at 0.1 µM (RET V804E): 13%
- inhibition at 0.1 µM (STK24 (MST3)): 11%
- inhibition at 0.1 µM (MARK3): 10%
- inhibition at 0.1 µM (ITK): 5%
- inhibition at 0.1 µM (IGF1R): 9%
- inhibition at 0.1 µM (JAK3): 24%
- inhibition at 0.1 µM (GRK7): 62%
- inhibition at 0.1 µM (CAMK2A (CaMKII alpha)): -4%
- inhibition at 0.1 µM (PRKCN (PKD3)): 13%
- inhibition at 0.1 µM (RET): 58%
- inhibition at 0.1 µM (EPHA5): 1%
- inhibition at 0.1 µM (CSNK1G2 (CK1 gamma 2)): 3%
- inhibition at 0.1 µM (ABL1): 14%
- inhibition at 0.1 µM (GRK6): 30%
- inhibition at 0.1 µM (KSR2): 7%
- inhibition at 0.1 µM (PLK1): 4%
- inhibition at 0.1 µM (ABL1 T315I): 10%
- inhibition at 0.1 µM (STK22B (TSSK2)): -2%
- inhibition at 0.1 µM (EGFR (ErbB1) G719C): 0%
- inhibition at 0.1 µM (KIT): 9%
- inhibition at 0.1 µM (RPS6KA2 (RSK3)): 24%
- inhibition at 0.1 µM (AMPK A1/B1/G1): 32%
- inhibition at 0.1 µM (YES1): 16%
- inhibition at 0.1 µM (STK22D (TSSK1)): 11%
- inhibition at 0.1 µM (CLK2): 8%
- inhibition at 0.1 µM (EGFR (ErbB1) T790M): 5%
